Reference: PMC9851200, “Multiparameter phenotypic screening for endogenous TFEB and TFE3 translocation identifies novel chemical series modulating lysosome function” (Autophagy, 2022)

What was measured:
ACVR1B = biological target: T1, ACVR1B (Homo sapiens, UniProt P36896); conditions: cited from earlier work
T1 sequence (P36896 24-505): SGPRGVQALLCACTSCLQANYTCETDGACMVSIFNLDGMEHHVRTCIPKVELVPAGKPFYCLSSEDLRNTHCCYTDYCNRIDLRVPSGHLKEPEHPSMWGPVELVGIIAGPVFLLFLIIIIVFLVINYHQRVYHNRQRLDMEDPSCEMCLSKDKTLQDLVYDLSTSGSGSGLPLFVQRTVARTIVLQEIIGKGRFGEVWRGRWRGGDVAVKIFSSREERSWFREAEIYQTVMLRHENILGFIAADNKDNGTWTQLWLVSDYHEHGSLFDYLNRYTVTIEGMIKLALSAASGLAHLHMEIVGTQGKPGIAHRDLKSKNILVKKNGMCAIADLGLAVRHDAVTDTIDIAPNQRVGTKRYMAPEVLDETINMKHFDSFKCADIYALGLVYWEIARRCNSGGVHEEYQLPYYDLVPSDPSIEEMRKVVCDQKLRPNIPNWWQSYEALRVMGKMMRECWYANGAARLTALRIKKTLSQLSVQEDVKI

CDC42BPB/MRCKB = CDC42BPB/MRCKB (Homo sapiens, UniProt Q9Y5S2); conditions: cited from earlier work
CSNK1E = CSNK1E (Homo sapiens, UniProt P49674); conditions: cited from earlier work
CSNK1E, sequence (P49674 whole entry): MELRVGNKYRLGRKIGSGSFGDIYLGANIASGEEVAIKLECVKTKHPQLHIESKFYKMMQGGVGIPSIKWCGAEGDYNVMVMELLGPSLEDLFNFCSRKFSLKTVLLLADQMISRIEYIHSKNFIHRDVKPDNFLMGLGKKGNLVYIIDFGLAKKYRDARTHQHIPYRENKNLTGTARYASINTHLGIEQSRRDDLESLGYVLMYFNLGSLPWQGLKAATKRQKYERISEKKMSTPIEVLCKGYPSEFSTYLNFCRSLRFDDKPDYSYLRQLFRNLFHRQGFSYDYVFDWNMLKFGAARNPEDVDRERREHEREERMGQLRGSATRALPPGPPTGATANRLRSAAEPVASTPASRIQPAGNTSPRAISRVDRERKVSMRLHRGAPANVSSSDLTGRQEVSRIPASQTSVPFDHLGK

CIT = CIT (Homo sapiens, UniProt O14578); conditions: cited from earlier work
CDC42BPG/DMPK2 = CDC42BPG/DMPK2 (Homo sapiens, UniProt Q6DT37); conditions: cited from earlier work
CDC42BPG/DMPK2, sequence (Q6DT37 whole entry): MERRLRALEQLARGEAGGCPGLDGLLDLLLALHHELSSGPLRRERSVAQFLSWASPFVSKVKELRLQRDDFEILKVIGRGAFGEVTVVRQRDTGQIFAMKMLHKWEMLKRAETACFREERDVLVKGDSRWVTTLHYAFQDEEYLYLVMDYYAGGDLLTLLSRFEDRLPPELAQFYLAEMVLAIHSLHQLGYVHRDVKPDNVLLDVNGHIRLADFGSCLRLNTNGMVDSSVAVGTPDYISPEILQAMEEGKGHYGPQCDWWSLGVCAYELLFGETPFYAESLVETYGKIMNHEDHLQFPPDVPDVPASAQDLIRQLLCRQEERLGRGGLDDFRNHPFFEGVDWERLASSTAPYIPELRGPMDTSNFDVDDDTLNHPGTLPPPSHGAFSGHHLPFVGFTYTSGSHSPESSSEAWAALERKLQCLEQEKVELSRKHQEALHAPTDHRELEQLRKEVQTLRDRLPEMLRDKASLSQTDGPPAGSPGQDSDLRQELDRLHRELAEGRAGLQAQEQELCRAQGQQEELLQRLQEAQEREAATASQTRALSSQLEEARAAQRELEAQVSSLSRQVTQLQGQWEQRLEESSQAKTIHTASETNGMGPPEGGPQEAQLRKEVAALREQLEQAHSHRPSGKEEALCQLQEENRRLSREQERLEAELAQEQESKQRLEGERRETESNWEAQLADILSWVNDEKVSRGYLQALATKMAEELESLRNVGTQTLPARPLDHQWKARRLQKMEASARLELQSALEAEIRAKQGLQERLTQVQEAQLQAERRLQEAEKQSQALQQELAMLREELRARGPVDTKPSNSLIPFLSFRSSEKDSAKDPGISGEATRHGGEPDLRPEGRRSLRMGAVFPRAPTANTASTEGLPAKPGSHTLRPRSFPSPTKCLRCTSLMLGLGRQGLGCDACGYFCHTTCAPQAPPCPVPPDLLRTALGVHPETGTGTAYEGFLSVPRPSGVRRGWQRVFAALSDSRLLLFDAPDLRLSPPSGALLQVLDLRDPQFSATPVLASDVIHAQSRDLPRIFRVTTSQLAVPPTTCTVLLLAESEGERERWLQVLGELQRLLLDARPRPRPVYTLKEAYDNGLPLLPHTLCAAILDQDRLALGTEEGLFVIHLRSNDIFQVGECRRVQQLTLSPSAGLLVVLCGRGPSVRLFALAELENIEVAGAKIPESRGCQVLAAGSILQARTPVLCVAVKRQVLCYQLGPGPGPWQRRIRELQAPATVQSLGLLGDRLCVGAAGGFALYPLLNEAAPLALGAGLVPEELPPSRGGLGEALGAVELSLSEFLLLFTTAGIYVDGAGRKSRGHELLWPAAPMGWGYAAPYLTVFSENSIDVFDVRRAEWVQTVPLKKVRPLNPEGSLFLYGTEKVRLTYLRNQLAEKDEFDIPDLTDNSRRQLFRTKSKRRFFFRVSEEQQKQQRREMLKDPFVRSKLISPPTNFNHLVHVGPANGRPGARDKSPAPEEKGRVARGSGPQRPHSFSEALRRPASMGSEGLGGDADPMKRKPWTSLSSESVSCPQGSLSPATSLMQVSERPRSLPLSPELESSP

PIKFYVE = PIKFYVE (Homo sapiens, UniProt Q9Y2I7); conditions: cited from earlier work
PIKFYVE, sequence (Q9Y2I7 whole entry): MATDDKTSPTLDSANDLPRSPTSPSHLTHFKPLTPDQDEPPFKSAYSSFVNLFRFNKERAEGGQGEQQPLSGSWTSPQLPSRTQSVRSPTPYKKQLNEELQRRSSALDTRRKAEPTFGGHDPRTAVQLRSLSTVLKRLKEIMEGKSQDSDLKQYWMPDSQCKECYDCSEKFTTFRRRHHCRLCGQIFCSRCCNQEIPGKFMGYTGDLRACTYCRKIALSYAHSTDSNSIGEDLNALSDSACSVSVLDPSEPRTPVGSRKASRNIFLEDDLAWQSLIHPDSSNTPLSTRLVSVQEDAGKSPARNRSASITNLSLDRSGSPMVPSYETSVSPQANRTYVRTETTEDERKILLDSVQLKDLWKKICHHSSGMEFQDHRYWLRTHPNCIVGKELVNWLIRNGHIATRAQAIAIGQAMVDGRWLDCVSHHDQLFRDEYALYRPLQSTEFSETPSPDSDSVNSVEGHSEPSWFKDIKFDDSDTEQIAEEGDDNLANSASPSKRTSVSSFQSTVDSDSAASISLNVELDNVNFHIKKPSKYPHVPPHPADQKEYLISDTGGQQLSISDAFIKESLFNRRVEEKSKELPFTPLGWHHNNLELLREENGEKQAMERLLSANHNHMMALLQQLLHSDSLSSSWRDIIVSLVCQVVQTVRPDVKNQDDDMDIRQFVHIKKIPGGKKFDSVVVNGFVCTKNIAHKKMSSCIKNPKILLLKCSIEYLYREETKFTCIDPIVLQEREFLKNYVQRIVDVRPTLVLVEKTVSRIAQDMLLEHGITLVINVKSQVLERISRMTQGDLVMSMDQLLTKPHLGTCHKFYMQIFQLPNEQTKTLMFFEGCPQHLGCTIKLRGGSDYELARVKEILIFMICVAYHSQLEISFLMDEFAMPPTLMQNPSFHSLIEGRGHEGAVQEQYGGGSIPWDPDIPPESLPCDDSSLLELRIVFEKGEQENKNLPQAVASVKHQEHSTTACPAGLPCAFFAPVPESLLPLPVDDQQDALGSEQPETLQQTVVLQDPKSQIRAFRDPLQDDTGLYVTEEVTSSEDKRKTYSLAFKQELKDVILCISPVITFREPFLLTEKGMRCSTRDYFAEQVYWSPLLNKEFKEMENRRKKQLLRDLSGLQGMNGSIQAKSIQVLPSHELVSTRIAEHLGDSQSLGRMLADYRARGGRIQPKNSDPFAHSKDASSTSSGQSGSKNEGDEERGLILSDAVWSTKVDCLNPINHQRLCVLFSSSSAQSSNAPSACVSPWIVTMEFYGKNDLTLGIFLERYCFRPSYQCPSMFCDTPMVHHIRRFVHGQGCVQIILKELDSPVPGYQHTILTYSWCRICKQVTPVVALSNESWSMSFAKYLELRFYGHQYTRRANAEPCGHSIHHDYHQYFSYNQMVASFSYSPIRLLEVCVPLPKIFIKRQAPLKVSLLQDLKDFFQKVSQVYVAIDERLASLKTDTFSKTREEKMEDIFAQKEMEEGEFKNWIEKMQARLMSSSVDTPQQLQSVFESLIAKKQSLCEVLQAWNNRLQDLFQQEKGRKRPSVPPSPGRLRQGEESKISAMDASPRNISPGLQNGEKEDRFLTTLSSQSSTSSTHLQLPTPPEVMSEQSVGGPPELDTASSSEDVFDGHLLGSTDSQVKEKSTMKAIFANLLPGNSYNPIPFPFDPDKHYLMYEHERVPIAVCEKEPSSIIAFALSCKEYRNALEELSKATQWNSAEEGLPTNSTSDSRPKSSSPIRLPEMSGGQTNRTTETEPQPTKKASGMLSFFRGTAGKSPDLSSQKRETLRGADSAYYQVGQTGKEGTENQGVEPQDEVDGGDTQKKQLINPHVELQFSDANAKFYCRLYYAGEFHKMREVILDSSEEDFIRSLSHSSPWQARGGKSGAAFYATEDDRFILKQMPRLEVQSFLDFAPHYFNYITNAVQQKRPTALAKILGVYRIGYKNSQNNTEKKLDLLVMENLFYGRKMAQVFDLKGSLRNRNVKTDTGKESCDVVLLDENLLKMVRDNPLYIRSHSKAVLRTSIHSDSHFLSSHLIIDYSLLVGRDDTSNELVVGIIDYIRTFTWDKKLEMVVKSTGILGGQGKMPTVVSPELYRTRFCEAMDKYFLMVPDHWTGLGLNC

MTOR = MTOR (Homo sapiens, UniProt P42345); conditions: cited from earlier work
SH-SY5Y cells = assay: AK (adenylate kinase) release ToxiLight cytotoxicity assay; conditions: PKIS2 primary screening
Description: Total cell lysis with 5 µL 5% Triton-X 100 (Sigma-Aldrich, T8787) is used as a positive control for the assay and toxicity is expressed as a percentage of luminescence under DMSO conditions.

CSNK1D = CSNK1D (Homo sapiens, UniProt P48730); conditions: cited from earlier work
CSNK1D, sequence (P48730 whole entry): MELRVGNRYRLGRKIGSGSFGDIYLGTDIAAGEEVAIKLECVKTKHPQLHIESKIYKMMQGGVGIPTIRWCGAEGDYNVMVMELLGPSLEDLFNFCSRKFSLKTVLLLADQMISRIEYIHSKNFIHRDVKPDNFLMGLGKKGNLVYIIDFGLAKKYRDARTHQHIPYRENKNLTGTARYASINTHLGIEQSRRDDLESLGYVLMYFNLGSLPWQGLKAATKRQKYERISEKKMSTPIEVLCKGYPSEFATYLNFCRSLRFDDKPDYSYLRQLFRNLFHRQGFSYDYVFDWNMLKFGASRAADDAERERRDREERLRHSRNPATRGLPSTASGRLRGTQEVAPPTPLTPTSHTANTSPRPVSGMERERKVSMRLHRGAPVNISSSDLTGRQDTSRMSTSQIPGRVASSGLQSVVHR

endogenous TFE3 = assay: TFE3 nuclear translocation, immunocytochemistry high-content imaging; type: cell-based; conditions: for TFE3 %: PKIS2 primary screening; for nTFE3 %: primary screen, 1 µM, 24 h, SH-SY5Y
TGFBR2 = TGFBR2 (Homo sapiens, UniProt P37173); conditions: cited from earlier work
TGFBR2, sequence (P37173 23-567): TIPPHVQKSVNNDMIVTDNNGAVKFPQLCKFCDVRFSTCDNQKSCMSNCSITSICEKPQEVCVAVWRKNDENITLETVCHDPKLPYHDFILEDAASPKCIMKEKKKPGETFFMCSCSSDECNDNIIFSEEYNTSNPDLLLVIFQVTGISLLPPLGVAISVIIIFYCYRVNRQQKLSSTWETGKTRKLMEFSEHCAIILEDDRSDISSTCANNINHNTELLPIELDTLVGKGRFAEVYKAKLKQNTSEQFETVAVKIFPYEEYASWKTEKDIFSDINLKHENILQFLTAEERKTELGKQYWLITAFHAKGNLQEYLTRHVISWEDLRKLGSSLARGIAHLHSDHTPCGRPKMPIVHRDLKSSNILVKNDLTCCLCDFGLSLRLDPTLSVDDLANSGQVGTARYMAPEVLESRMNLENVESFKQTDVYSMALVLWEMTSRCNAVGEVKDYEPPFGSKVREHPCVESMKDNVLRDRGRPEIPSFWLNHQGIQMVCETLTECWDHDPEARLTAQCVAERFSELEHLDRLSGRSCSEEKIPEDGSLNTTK

PRKD1 = biological target: T2, PRKD1 (Homo sapiens, UniProt Q15139); conditions: cited from earlier work
T2 sequence (Q15139 1-912): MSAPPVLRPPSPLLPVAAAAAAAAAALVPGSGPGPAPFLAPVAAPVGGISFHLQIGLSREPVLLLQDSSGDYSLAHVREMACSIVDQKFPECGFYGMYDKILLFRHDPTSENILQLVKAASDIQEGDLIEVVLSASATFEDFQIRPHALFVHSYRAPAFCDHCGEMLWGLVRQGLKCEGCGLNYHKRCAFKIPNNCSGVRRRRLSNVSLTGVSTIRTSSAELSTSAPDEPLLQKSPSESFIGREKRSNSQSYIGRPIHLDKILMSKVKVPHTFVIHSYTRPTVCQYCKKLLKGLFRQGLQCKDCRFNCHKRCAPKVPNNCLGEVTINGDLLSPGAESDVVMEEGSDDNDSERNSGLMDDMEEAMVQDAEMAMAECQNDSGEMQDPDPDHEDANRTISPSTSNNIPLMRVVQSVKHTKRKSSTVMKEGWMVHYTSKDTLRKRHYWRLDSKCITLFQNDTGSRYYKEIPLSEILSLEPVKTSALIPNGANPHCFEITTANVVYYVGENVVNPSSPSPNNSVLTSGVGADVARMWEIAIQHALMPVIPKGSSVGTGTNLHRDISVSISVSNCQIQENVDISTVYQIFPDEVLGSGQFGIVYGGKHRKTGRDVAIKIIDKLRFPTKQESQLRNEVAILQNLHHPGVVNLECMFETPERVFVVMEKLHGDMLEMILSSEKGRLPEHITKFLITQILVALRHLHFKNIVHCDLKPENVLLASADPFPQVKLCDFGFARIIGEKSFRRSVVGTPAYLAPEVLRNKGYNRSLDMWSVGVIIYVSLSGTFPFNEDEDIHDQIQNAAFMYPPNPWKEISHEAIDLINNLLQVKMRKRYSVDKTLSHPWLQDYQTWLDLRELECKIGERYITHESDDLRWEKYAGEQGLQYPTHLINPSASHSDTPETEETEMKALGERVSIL

PRKD2 = biological target: T3, PRKD2 (Homo sapiens, UniProt Q9BZL6); conditions: cited from earlier work
T3 sequence (Q9BZL6 1-878): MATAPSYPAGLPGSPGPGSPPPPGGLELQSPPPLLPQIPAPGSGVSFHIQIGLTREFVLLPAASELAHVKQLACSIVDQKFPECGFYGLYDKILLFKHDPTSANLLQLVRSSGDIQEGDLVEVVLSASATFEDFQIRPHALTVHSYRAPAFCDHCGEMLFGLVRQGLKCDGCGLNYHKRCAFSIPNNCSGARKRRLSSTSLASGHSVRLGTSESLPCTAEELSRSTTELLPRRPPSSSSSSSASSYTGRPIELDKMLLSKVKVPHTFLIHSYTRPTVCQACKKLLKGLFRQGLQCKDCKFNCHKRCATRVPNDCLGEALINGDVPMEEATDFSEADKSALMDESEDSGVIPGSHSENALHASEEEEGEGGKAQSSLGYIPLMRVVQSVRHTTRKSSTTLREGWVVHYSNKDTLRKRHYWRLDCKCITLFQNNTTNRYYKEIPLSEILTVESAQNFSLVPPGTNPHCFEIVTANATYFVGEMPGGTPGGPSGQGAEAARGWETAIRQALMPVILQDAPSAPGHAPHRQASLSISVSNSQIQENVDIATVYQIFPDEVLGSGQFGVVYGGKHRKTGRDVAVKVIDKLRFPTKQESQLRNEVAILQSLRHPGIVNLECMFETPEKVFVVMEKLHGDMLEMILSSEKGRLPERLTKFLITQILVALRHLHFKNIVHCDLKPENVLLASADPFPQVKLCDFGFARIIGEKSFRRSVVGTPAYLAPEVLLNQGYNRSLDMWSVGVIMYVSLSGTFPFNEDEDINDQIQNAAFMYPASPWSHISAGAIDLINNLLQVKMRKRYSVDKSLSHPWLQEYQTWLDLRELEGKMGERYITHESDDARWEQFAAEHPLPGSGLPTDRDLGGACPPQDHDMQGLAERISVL

Row | SMILES | KINOMEscan binding ACVR1B (ACVR1B) [%] | KINOMEscan binding CDC42BPB/MRCKB (CDC42BPB/MRCKB) [%] | KINOMEscan binding CSNK1E (CSNK1E) [%] | KINOMEscan binding CIT (CIT) [%] | KINOMEscan binding CDC42BPG/DMPK2 (CDC42BPG/DMPK2) [%] | KINOMEscan binding PIKFYVE (PIKFYVE) [%] | KINOMEscan binding MTOR (MTOR) [%] | AK (SH-SY5Y cells) | KINOMEscan binding CSNK1D (CSNK1D) [%] | TFE3 % (endogenous TFE3) [%] | nTFE3 % (endogenous TFE3) [%] | KINOMEscan binding TGFBR2 (TGFBR2) [%] | KINOMEscan binding PRKD1 (PRKD1) [%] | KINOMEscan binding PRKD2 (PRKD2) [%]
1 | Cc1ccc(-c2nc(Nc3ccncc3)c3ccccc3n2)s1 [GSK189015] | 0 | 21 | 22 | 42 | 13 | 63 | 10 | 70.77 | 33 | 15.06 | 15 | 21 | 18 | 14
2 | Cc1csc(-c2nc(Nc3ccncc3)c3ccccc3n2)n1 [GW869640] | 94.7 | 44 | 41 | 61 | 35 | 78 | 74 | 59.35 | 46 | 13.20 | 13 | 88 | 69 | 78
